# Laboratory results published in US6028195A, “Piperazine derivatives and process for the preparation thereof” (Samjin Pharmaceutical Co., Ltd., priority 1996, dated 2000).
# Like-named read-outs stand apart in the source and are kept apart here.
# How the values were obtained:
# Format in all cases: cell-based
# Conditions in all cases: for IC50: Homo sapiens
# [1] = tested on: A549 (human non-small lung cell); experiment: SRB assay, in vitro antitumor effect against A549
# Procedure: (§1) In vitro antitumor effect against human tumor cell lines.
# (§2) b. 5×10^3 ~2×10^4 cells were added into each well of 96-well plate and cultured in 5% CO2 incubator, at 37° C., for 24 hours.
# (§3) c. Each sample drug was dissolved in a little DMSO and diluted with the used medium to a prescribed concentration for experiments, wherein the final concentration of DMSO was controlled below 0.5%.
# (§4) d. Medium of each well cultured for 24 hours as above b. was removed by aspiration. Each 200 μl of drug samples prepared in c. was added into each well and the wells were cultured for 48 hours. Tz(time zero) plates were collected at the point of time drugs were added.
# (§5) e. According to the SRB assay method, cell fixing with TCA, staining with 0.4% SRB solution, washing with 1% acetic acid and elution of dye with 10 mM Tris solution were carried out on Tz plates and culture-ended plates, and then, OD values were measured at 520 nm.
# (§6) a. Time zero(Tz) value was determined with measuring the SRB protein value at the point of time drugs were added.
# (§7) b. Control value(C) was determined with the OD value of an well untreated with drug.
# (§8) c. Drug-treated test value(T) was determined with the OD value of drug-treated well.
# (§9) d. Effects of drugs were estimated with growth stimulation, net growth inhibition, net killing etc. calculated from Tz, C and T.
# (§10) e. If T≥Tz, cellular response function was calculated by 100×(T-Tz)/(C-Tz), and if T<Tz, by 100×(T-Tz)/Tz.
# SKOV-3 (human ovarian) = experiment: SRB assay, in vitro antitumor effect against SKOV-3
# Procedure: as §1, §2, §3, §4, §5, §6, §7, §8, §9, §10
# SKMEL-2 (human melanoma) = experiment: SRB assay, in vitro antitumor effect against SKMEL-2
# Procedure: as §1, §2, §3, §4, §5, §6, §7, §8, §9, §10
# XF 498 (human CNS) = experiment: SRB assay, in vitro antitumor effect against XF 498
# Procedure: as §1, §2, §3, §4, §5, §6, §7, §8, §9, §10
# HCT-15 (human colon) = experiment: SRB assay, in vitro antitumor effect against HCT-15
# Procedure: as §1, §2, §3, §4, §5, §6, §7, §8, §9, §10
# [2] = A549, 48 hours, read-out: ED50 (the source's name)
# [3] = SK-OV-3, 48 hours, read-out: ED50 (the source's name)
# [4] = SK-MEL-2, 48 hours, read-out: ED50 (the source's name)
# [5] = XF498, XF-498, 48 hours, read-out: ED50 (the source's name)
# [6] = HCT 15, 48 hours, read-out: ED50 (the source's name)
Molecule,"IC50 [1, 2] [mg/L]",IC50 (SKOV-3 (human ovarian); [3]) [mg/L],IC50 (SKMEL-2 (human melanoma); [4]) [mg/L],IC50 (XF 498 (human CNS); [5]) [mg/L],IC50 (HCT-15 (human colon); [6]) [mg/L],other results
"1-{[2-(Pyridin-2-yl)quinolin-4-yl]aminocarbonyl}-4-(3,5-dimethoxyphenyl)piperazine [Example 128]",,,,,,"ED50 ([1]; A549, 48 hours): 0.40 mg/L; ED50 (SKOV-3 (human ovarian); SK-OV-3, 48 hours): 0.37 mg/L; ED50 (SKMEL-2 (human melanoma); SK-MEL-2, 48 hours): 0.42 mg/L; ED50 (XF 498 (human CNS); XF-498, 48 hours): 0.44 mg/L; ED50 (HCT-15 (human colon); HCT 15, 48 hours): 0.51 mg/L"
"COc1cccc2c1C(=O)c1c(O)c3c(c(O)c1C2=O)C[C@@](O)(C(=O)CO)C[C@@H]3O[C@H]1C[C@H](N)[C@H](O)[C@H](C)O1 [Adriamycin, reference compound]",,,,,,"IC50 ([1]; A549, 48 h, read-out: ED50): 0.0168 mg/L; IC50 (SKOV-3 (human ovarian); SK-OV-3, 48 h, read-out: ED50): 0.0176 mg/L; IC50 (SKMEL-2 (human melanoma); SK-MEL-2, 48 h, read-out: ED50): 0.0108 mg/L; IC50 (XF 498 (human CNS); XF498, 48 h, read-out: ED50): 0.025 mg/L; IC50 (HCT-15 (human colon); HCT-15, 48 h, read-out: ED50): 1.67 mg/L"
"N.N.[Cl][Pt][Cl] [Cisplatin, reference compound]",,,,,,"ED50 ([1]; A549, 48 hours): 0.8184 mg/L; ED50 (SKOV-3 (human ovarian); SK-OV-3, 48 hours): 0.7134 mg/L; ED50 (SKMEL-2 (human melanoma); SK-MEL-2, 48 hours): 0.7147 mg/L; ED50 (XF 498 (human CNS); XF-498, 48 hours): 0.7771 mg/L; ED50 (HCT-15 (human colon); HCT 15, 48 hours): 3.0381 mg/L"
"CCc1cc(NC(=O)N2CCN(c3ccccc3SC)CC2)c(OC)nc1C [Example 4, 1-[(5-Ethyl-6-methyl-2-methoxypyridin-3-yl)aminocarbonyl]-4-(2-methylthiophenyl)piperazine]",0.007,0.022,0.007,0.94,0.093,
"C=C(C)c1ccccc1N1CCN(C(=O)Nc2cc(CC)c(C)nc2OC)CC1 [Example 5, 1-[(5-Ethyl-6-methyl-2-methoxypyridin-3-yl)aminocarbonyl]-4-(2-isopropenylphenyl)piperazine]",0.71,0.96,0.6,> 10,0.96,
"CCCc1cc(NC(=O)N2CCN(c3cc(C)cc(C)c3)CC2)c(OC)nc1C [Example 9, 1-[(2-Methoxy-6-methyl-5-propylpyridin-3-yl)aminocarbonyl]-4-(3,5-dimethylphenyl)piperazine]",0.15,0.07,0.21,0.11,0.11,
"CCCc1cc(NC(=O)N2CCN(c3ccccc3OC)CC2)c(OC)nc1C [Example 11, 1-[(2-Methoxy-6-methyl-5-propylpyridin-3-yl)aminocarbonyl]-4-(2-methoxyphenyl)piperazine]",0.91,0.56,0.62,0.73,0.71,
"CCc1nc(OC)c(NC(=O)N2CCN(c3cccc(O)c3)CC2)cc1C [Example 14, 1-[(6-Ethyl-2-methoxy-5-methylpyridin-3-yl)aminocarbonyl]-4-(3-hydroxyphenyl)piperazine]",0.022,0.02,,0.16,0.007,"IC50 (SKMEL-2 (human melanoma); SK-MEL-2, 48 h, read-out: ED50): 0.001 mg/L"
"CCCc1nc(OC)c(NC(=O)N2CCN(c3cccc(O)c3)CC2)cc1C [Example 17, 1-[(2-Methoxy-5-methyl-6-propylpyridin-3-yl)aminocarbonyl]-4-(3-hydroxyphenyl)piperazine]",0.018,0.01,0.021,,0.008,"IC50 (XF 498 (human CNS); XF498, 48 h, read-out: ED50): 0.077 mg/L"
"COc1nc(C)c(C)cc1NC(=S)N1CCN(c2cc(F)cc(F)c2)CC1 [Example 23, 1-[(5,6-Dimethyl-2-methoxypyridin-3-yl)aminothiocarbonyl]-4-(3,5-difluorophenyl)piperazine]",0.09,0.04,0.09,0.092,0.05,
"COc1nc(C)c(C)cc1NC(=S)N1CCN(c2cccc(O)c2)CC1 [Example 24, 1-[(5,6-Dimethyl-2-methoxypyridin-3-yl)aminothiocarbonyl]-4-(3-hydroxyphenyl)piperazine]",0.03,0.006,0.01,0.234,0.01,
"CCCc1nc(OC)c(NC(=S)N2CCN(c3cc(C)cc(C)c3)CC2)cc1C [Example 27, 1-[(2-Methoxy-5-methyl-6-propylpyridin-3-yl)aminothiocarbonyl]-4-(3,5-dimethylphenyl)piperazine]",0.02,0.11,0.01,,0.165,"IC50 (XF 498 (human CNS); XF498, 48 h, read-out: ED50): 0.046 mg/L"
